Active and inactive are the calls of the source.
Experiments:
[1] = target: T1, Intestinal-type alkaline phosphatase (Mus musculus, UniProt P24822); experiment: PubChem AID 488874; format: functional
[2] = target: T2, Intestinal-type alkaline phosphatase (Homo sapiens, UniProt P09923); experiment: human IAP inhibitors, dose response, biochemical, luminescent, uHTS hits, set 2 (AID 488793); format: functional
[3] = target: T2, Intestinal-type alkaline phosphatase; experiment: Dose Response confirmation of uHTS hits from a small molecule inhibitors of human intestinal alkaline phosphatase via a luminescent assay. [Related pubchem assays (depositor defined):AID2544, AID2574]; format: functional
[4] = target: T3, Alkaline phosphatase, tissue-nonspecific isozyme (Homo sapiens, UniProt P05186); experiment: inhibition of tissue-nonspecific alkaline phosphatase – biochemical, dose response (AID 488882); format: functional
T3 sequence (P05186 whole entry): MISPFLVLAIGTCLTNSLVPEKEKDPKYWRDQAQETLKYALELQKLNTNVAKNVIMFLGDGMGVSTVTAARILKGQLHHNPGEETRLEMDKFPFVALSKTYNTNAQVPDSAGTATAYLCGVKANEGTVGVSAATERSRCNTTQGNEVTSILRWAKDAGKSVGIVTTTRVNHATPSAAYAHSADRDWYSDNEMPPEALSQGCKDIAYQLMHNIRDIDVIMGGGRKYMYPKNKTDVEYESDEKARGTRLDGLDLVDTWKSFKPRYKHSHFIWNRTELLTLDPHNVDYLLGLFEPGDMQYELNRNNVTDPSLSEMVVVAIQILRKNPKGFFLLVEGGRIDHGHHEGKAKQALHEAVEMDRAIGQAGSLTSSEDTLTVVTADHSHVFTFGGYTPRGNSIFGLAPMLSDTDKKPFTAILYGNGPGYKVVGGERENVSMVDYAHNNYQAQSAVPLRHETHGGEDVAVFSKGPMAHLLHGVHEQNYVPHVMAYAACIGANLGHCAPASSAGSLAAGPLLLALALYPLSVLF

HEK293 = experiment: cells; format: functional, cell-based; conditions: Homo sapiens
[5] = target: Nuclear receptor subfamily 0 group B member 1 (Homo sapiens, UniProt P51843); experiment: Luminescence-based cell-based high throughput dose response assay for inhibitors of the orphan nuclear receptor subfamily 0, group B, member 1 (DAX1; NR0B1). [Related pubchem assays (depositor defined):AID504766, AID504790]; format: functional
[6] = HeLa cell cytotoxicity, dose response, cytotoxicity control for MgcRacGAP inhibitor project (AID 624300); format: functional
[7] = target: T4, Rac GTPase-activating protein 1 (Homo sapiens, UniProt Q9H0H5); experiment: MgcRacGAP GTPase-activating activity inhibitors, confirmation, biochemical, ADP Hunter fluorescence, primary and confirmatory (AID 624330); format: functional
T4 sequence (Q9H0H5 whole entry): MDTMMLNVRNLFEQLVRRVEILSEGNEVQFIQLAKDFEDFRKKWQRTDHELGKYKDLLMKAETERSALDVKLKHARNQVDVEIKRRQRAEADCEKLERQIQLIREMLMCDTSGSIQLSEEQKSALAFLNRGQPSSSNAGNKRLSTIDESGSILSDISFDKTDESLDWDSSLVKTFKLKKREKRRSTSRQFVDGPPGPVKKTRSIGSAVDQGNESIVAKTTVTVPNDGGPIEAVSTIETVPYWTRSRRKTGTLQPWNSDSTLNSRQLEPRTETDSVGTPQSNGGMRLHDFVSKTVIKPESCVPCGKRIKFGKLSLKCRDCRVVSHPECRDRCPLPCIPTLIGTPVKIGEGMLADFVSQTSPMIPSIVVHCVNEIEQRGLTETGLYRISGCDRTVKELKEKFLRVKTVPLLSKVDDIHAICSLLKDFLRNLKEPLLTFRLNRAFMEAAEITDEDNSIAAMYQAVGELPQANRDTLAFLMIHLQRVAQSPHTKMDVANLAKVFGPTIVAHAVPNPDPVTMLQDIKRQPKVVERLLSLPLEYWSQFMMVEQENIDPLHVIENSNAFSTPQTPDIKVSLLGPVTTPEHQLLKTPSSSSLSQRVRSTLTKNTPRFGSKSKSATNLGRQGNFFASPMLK

[8] = target: Neuropeptide Y receptor type 2 (Homo sapiens, UniProt P49146); experiment: NPY-Y2 antagonist potency, selectivity check, dose response, counter-screen for NPY-Y1 antagonist project, cell-based (AID 1278); format: functional
[9] = target: Neuropeptide Y receptor type 1 (Homo sapiens, UniProt P25929); experiment: NPY-Y1 receptor antagonist potency, dose response, cell-based (AID 1277); format: functional
Jurkat = experiment: antigen receptor-induced NF-kB inhibitors, dose response, Jurkat, luciferase reporter, luminescence, B- and T-cell (AID 489004); format: functional, cell-based; conditions: Homo sapiens;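 note: NF-kB luciferase reporter Jurkat cells stimulated with PMA plus ionomycin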
[10] = cytotoxicity in HEK-293T NF-kB-Luc cells, dose response, cytotoxicity control for B/T-cell NF-kB inhibitor project, cell-based, uHTS hits (AID 489019); format: functional;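 note: IC50 reflects cytotoxicity as loss of cell viability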
INS1 = experiment: beta cell apoptosis inhibitors, cytokine rescue, dose response, luminescence, retest (AID 449756); format: functional, cell-based; conditions: Rattus norvegicus;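 note: cell death triggered by IL-1 beta plus TNF-alpha plus IFN-gamma mixture; protective hits raise ATP signal compared with cytokine alone wells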
[11] = target: Lysine-specific demethylase 4A (Homo sapiens, UniProt O75164); experiment: JMJD2A histone demethylase inhibitors, dose response, selectivity assay for GASC-1 inhibitor project, biochemical, DELFIA europium, cherry-picked samples (AID 488840)
[12] = target: T5, RNA-binding protein pos-1 (Caenorhabditis elegans, UniProt G5EF15); experiment: inhibitors of POS-1/mex-3 RNA binding, dose response, biochemical, fluorescence polarization (AID 1964);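 note: purified POS-1 fused to maltose binding protein made in E. coli; potency of compounds blocking POS-1 binding to fluorescent RNA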
T5 sequence (G5EF15 whole entry): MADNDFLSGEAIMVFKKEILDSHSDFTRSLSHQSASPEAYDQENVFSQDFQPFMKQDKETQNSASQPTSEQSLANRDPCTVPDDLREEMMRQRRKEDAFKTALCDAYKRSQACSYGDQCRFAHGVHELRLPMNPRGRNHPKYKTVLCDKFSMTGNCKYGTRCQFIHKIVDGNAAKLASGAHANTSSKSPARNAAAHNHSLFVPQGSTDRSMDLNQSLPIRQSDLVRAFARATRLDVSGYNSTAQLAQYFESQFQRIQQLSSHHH

[13] = target: T6, Zinc finger protein mex-5 (Caenorhabditis elegans, UniProt Q9XUB2); experiment: MEX-5/TCR-2 RNA interaction inhibitors, dose response, biochemical, C. elegans, fluorescence polarization (AID 1960)
T6 sequence (Q9XUB2 whole entry): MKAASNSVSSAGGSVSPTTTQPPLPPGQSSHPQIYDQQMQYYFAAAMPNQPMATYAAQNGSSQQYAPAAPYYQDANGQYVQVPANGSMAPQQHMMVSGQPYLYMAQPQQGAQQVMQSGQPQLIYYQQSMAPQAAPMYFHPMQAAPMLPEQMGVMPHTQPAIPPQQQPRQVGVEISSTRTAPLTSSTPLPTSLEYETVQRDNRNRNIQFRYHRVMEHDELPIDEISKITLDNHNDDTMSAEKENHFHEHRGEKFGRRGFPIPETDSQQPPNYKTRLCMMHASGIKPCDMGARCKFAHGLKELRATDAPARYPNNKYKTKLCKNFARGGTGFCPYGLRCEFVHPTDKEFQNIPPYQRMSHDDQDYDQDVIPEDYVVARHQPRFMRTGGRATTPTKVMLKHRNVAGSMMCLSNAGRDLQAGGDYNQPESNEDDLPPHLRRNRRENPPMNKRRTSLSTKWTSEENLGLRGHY

[14] = target: T1, Intestinal-type alkaline phosphatase; experiment: PubChem AID 488785; format: functional
[15] = target: T3, Alkaline phosphatase, tissue-nonspecific isozyme; experiment: TNAP enzyme inhibition by screening hits, dose response, selectivity assay for mouse IAP inhibitor project, biochemical, human TNAP, uHTS hits (AID 488906); format: functional
[16] = target: T2, Intestinal-type alkaline phosphatase; experiment: inhibition of human intestinal alkaline phosphatase – biochemical, dose response (AID 488876); format: functional
[17] = target: Dual specificity tyrosine-phosphorylation-regulated kinase 1A (Rattus norvegicus, UniProt Q63470); format: biochemical, Homo sapiens
[18] = target: Long-chain-fatty-acid--AMP ligase FadD28 (Mycobacterium tuberculosis, UniProt P9WQ59); experiment: Fluorescence polarization aasay to screen for inhibitors that compete for the binding of FadD28 to a bisubstrate Measured in Biochemical System Using Plate Reader - 2147-01_Inhibitor_Dose_CherryPick_Activity.; format: functional, Mycobacterium tuberculosis H37Rv
Chain of Long-chain-fatty-acid--AMP ligase FadD28 (P9WQ59 whole entry): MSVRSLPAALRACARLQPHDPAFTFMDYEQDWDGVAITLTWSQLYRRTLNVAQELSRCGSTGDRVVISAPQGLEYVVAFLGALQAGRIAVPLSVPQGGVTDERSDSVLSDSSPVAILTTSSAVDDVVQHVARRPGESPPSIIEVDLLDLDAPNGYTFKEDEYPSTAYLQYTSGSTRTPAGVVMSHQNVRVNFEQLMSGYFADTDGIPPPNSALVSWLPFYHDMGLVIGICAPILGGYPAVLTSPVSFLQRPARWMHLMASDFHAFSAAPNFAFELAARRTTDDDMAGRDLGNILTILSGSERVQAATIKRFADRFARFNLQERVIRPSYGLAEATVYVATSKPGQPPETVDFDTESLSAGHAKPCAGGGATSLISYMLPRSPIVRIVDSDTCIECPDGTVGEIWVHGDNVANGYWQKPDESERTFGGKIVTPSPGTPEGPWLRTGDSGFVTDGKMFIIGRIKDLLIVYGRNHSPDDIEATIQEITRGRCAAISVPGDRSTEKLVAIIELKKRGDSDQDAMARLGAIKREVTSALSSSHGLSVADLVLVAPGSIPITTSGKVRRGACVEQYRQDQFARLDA

T2 sequence (P09923 whole entry): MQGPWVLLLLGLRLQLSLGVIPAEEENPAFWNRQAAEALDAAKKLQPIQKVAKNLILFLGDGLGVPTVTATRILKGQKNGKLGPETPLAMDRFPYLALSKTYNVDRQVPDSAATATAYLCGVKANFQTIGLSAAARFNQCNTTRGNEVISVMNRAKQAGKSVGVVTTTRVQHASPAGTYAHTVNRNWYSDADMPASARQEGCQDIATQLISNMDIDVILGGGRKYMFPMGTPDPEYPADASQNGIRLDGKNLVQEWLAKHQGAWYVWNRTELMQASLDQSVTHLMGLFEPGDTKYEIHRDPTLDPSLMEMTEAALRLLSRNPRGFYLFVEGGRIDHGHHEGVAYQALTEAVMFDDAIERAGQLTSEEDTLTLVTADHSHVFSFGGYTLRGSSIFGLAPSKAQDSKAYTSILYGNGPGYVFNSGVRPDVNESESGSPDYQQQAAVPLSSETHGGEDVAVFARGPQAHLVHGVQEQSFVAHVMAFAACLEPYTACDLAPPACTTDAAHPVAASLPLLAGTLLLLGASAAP
T1 sequence (P24822 whole entry): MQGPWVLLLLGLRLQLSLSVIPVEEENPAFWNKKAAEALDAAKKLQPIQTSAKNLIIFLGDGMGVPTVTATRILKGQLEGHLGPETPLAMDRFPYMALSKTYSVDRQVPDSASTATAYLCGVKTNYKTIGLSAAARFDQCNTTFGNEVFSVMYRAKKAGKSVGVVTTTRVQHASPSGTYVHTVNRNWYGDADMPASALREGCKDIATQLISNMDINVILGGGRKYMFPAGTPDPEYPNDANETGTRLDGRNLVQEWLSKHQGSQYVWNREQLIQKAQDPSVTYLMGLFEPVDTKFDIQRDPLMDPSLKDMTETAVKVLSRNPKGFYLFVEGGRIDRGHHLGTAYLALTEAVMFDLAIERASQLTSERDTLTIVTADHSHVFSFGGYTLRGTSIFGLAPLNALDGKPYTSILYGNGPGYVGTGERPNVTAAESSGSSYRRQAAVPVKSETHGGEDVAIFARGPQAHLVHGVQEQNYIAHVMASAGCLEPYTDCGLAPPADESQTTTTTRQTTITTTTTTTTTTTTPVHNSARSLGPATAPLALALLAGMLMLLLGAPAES
Chain of Nuclear receptor subfamily 0 group B member 1 (P51843 whole entry): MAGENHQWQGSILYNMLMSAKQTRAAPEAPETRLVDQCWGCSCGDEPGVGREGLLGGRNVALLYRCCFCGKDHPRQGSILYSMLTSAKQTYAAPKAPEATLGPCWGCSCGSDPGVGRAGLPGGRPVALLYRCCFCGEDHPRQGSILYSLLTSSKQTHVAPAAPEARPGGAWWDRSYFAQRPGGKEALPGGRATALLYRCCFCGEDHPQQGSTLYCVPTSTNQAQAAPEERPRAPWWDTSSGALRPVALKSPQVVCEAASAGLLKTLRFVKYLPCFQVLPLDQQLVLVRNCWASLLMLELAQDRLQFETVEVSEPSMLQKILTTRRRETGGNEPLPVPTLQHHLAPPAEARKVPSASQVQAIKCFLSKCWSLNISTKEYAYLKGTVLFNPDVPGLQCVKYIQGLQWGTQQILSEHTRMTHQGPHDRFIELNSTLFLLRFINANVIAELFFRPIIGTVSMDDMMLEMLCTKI
Chain of Neuropeptide Y receptor type 2 (P49146 whole entry): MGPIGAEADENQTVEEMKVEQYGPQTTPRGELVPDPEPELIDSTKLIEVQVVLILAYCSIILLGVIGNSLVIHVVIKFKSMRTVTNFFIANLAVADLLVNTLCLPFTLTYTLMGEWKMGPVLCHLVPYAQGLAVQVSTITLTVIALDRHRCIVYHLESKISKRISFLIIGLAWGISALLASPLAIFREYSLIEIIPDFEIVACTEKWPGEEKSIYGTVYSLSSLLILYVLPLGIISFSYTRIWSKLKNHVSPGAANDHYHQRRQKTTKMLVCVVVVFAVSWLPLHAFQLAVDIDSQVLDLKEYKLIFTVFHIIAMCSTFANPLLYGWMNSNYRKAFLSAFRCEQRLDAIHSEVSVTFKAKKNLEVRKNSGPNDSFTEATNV
Chain of Lysine-specific demethylase 4A (O75164 whole entry, the tested form may be a part): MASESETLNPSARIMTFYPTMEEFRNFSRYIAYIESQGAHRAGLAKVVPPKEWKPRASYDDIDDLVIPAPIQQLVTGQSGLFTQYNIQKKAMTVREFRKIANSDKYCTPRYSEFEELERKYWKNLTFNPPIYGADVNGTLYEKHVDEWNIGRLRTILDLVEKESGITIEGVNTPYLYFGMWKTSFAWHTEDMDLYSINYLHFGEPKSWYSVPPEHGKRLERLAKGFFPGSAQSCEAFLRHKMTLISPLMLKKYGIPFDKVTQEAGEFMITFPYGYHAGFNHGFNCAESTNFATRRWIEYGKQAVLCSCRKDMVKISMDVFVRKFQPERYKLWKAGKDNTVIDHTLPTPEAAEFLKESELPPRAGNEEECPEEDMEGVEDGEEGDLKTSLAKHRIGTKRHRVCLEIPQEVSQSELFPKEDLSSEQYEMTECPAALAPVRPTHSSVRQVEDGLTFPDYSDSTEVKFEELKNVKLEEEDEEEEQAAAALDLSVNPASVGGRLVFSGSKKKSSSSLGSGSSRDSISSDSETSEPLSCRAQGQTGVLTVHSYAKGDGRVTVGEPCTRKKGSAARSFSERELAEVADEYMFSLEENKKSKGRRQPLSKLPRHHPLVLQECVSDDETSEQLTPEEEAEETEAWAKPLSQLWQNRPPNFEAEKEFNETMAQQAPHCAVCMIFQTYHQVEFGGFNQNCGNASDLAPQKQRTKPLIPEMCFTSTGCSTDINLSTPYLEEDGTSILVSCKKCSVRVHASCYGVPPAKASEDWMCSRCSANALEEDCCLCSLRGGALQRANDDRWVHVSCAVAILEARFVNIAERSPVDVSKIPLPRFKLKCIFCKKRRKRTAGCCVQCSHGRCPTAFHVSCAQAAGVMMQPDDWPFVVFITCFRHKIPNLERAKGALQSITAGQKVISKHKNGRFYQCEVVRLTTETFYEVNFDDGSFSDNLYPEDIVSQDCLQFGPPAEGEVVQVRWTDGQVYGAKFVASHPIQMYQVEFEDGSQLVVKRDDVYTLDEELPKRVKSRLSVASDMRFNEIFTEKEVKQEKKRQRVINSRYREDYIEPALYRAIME
Chain of Neuropeptide Y receptor type 1 (P25929 whole entry): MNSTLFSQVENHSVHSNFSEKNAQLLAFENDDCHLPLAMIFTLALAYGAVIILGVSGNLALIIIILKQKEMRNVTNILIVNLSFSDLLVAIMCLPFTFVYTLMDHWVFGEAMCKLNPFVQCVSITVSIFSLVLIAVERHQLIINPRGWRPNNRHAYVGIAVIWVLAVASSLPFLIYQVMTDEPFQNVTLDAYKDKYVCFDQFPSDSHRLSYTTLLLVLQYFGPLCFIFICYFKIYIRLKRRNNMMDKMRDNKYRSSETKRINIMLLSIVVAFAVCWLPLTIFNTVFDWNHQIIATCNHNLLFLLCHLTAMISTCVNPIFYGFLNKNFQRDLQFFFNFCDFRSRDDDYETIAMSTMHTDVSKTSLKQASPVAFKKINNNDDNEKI

## O=c1oc(-c2ccc(O)c(O)c2)cc2cc(O)cc(O)c12 [THUNBERGINOL B]
[1]
  IC50: 7.57 µM (active)
[2]
  IC50: 0.565 µM (active)
[3]
  IC50: 2.17 µM (active)
[4]
  IC50: 19.5 µM (active)
HEK293
  IC50: > 67.5 µM (inactive)
[5]
  IC50: > 67.5 µM (inactive)
[6]
  CC50: 100 µM (active)
[7]
  IC50: 20.4 µM (active)

## CCN(CC)S(=O)(=O)c1ccc(Oc2ccc(S(=O)(=O)N(CC)CC)cc2)cc1
[8]
  IC50: > 35 µM (not active)
[9]
  IC50: > 35 µM (not active)
Jurkat
  IC50: > 80 µM (inactive)
[10]
  IC50: > 80 µM (inactive)
INS1
  AC50: 2.23 µM (active)

## Cc1ccc(N(CC(=O)N2CCn3c2nc2ccccc23)S(=O)(=O)c2c(C)n[nH]c2C)cc1
[11]
  AC50: 55.7 µM (active)

## NS(=O)(=O)c1ccc(-c2ccc(/C=C3\NC(=S)NC3=O)o2)cc1
[12]
  EC50: 21.7 µM (inconclusive)
[13]
  EC50: 10.8 µM (inconclusive)
[14]
  IC50: 9.48 µM (active)
[15]
  IC50: 35.3 µM (active)
[16]
  IC50: > 100 µM (inactive)
[17]
  AC50: 18.3 µM (active)
[18]
  AC50: 77.2 µM (active)

Source: ChEMBL document CHEMBL1201862, “PubChem BioAssay data set” (2004)
